Measured values from patent US20090062255A1, “TUMOR-TARGETING EVALUATION METHODOLOGY AND COMPOUNDS RELATED THERETO” (THALLION PHARMACEUTICALS INC., priority 2007, published 2009).

Key:
PBR = molecular target: T1, PBR (Rattus norvegicus, UniProt P16257); assay: In vivo PBR occupancy by PET (11C-(R)-PK11195) following IP administration; conditions: 30 mg/kg IP
T1 construct: from tissue; host or cells: orthotopic rat C6 glioma in Sprague-Dawley rats, in vivo
Protocol: (R)-1-(2-chlorophenyl)-N-methyl-N-(1-methyl-propyl)-3-isoquinoline carboxamide (R N-desmethyl PK11195), the precursor for the radioisotope-labeled (R) —PK11195, was purchased from ABX (Radeburg, Germany). The synthesis of ^11C-(R)-PK11195 was accomplished by a modification of the method of Camsonne et al. (J. Label. Compd. Radiopharm., 21: 985-991,1984). Briefly, ^11C-methyl iodide (^11C—CH3I) was transferred by a stream of nitrogen gas at a flow rate of 10 ml/min into a reaction medium containing 1 mg or R—N-desmethyl PK11195 previously dissolved in 0.5 mL of dimethylsulfoxide (DMSO) and about 20 mg of sodium hydroxide. The reaction was initiated at room temperature, with a bubbling of the ^11C—CH3I being continued over a 5 minute period. After bubbling was complete, the reaction mixture was left standing for 5 minutes. Purification was performed by high pressure liquid chromatography (HPLC) using a reverse-phase C18 column and a methanol:ammonium formate (20 mM) (80:20) mixture and a mobile phase at a flow rate of 3 mL/min. ^11C—(R) —PK11195 was eluted at 11 minutes and obtained with a specific radioactivity of […].
In vivo PET studies were performed 14 days post tumor implantation. […] Attenuation correction factors, for each rat (total of 7 animals), were determined using a 10 min ^57Co transmission scan acquired immediately prior to the dynamic scan. […]

[1] = system: MES-SA/DX5 (doxorubicin-resistant P-glycoprotein over-expressing variant); assay: Growth inhibitory MTT assay, MES-SA/DX5; type: cell-based, human; conditions: 72 hours, treated over control
Protocol: (§1) Growth inhibitory activity of ECO-4601 (Compound 1) and other dibenzodiazepinone analogs was evaluated on a panel of 4 human tumor cell lines: the human uterine sarcoma MES-SA and its doxorubicin-resistant P-glycoprotein over-expressing variant, MES-SA/DX5 as well as non-aggressive and highly aggressive human breast cell lines, MCF-7 and MDA-MB-231, respectively. These four cell lines were obtained from the American Type Culture Collection (Manassas, Va.) and cultured in RPMI plus 10% fetal bovine serum (FBS) and maintained at 37° C. with 5% CO2.
(§2) Exponentially growing cells (5,000 cells per well time; cell number determined with a hemocytometer) were seeded in 96-well flat-bottom plates and allowed to grow overnight. Cells were then incubated for 72 hours with three different concentrations of ECO-4601 or analogs: 30,10, and 3 μM. The in vitro growth inhibitory activity was determined by a commercial MTT assay. All measurements were done in quadruplicate and each experiment was performed 2-3 times. The lower the value, the more cytotoxic is the compound.

[2] = system: human uterine sarcoma MES-SA; assay: Growth inhibitory MTT assay, MES-SA; type: cell-based; conditions: 72 hours, treated over control
Protocol: as §1, §2

[3] = system: human breast cell line MDA-MB-231; assay: Growth inhibitory MTT assay, MDA-MB-231; type: cell-based; conditions: 72 hours, treated over control
Protocol: as §1, §2

[4] = molecular target: T2, peripheral benzodiazepine receptor (PBR) (Rattus norvegicus, UniProt P16257); assay: In-house PBR binding assay ([3H]PK11195, rat heart mitochondrial membranes); conditions: in-house radioligand-binding assay
T2 construct: CBR and PBR were obtained from rat brain and heart membrane-fractions, respectively; from tissue; host or cells: Wistar rat heart membranes

[5] = system: human breast cell line MCF-7; assay: Growth inhibitory MTT assay, MCF-7; type: cell-based; conditions: 72 hours, treated over control
Protocol: as §1, §2

Compound | reduction of PBR occupancy for 11C-(R)-PK11195 binding, average (PBR) | % T/C at 10 μM [1] | % T/C at 10 μM [2] | % T/C at 10 μM [3] | IC50 [4] | % T/C at 10 μM [5]
10-farnesyl-4,6,8-trihydroxy-5,10-dihydrodibenzo[b,e][1,4]diazepin-11-one [Compound 1] | 31% |  |  |  |  | 
CC(C)=CCC/C(C)=C/CC/C(C)=C/CN1C(=O)c2cccc(O)c2Nc2c1cc(O)c(C1CCCO1)c2O (stereo not drawn) [Compound 100] |  | 86% | 18% | 43% | 10 nM | 38%
